Target: T1, 5-HT3 -receptor (Rattus norvegicus, UniProt P35563)
T1 construct: Transient reduction in heart rate and blood pressure induced by intravenous administration of serotonin; from tissue
T1 sequence (P35563 24-483): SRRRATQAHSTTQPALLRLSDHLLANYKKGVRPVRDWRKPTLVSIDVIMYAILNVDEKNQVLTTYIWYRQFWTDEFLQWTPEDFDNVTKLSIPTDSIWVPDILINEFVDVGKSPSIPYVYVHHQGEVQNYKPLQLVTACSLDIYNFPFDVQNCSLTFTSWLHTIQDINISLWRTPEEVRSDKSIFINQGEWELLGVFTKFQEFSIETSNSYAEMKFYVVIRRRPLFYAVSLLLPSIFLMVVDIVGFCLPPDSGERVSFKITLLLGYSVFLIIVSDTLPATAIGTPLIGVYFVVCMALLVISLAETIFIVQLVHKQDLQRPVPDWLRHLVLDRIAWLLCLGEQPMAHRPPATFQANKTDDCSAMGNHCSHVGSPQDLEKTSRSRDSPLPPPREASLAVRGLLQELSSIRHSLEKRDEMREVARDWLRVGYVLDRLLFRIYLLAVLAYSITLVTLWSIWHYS
Assay: Antagonism against 5-HT3-receptor: serotonin-induced Bezold-Jarish (BJ) reflex in anesthetized rats
Type: in vivo
Settings: iv, 10 min, i.v., urethane-anesthetized Wistar male rats, given 10 minutes before serotonin, read-out: BJ Reflex Inhibitory Activity ED50
Protocol: Nine-week-old Wistar male rats were anesthetized by intraperitoneal administration of 1 g/kg of urethane, and blood pressure and heart rate were measured under artificial respiration. Transient reduction in heart rate and blood pressure induced by intravenous administration of serotonin or 2-methylserotonin which is a selective agonist of 5-HT3 was taken as an index of the reaction via 5-HT3 receptor [Bezold-Jarish reflex; Paintal, A. S., Pysiolo. Rev., Vol. 53, p. 159 (1973)].
Inhibitory activity of the compound of the present invention on serotonin-induced Bezold-Jarish (BJ) reflex in rats is shown in Table 1 below.

| ED50 [µg/kg] | SMILES |
| --- | --- |
| 0.8 | O=C(C1CCc2nc[nH]c2C1)n1c(=O)[nH]c2ccccc21 (centres unmarked) [Example 9, 1-[(4,5,6,7-tetrahydrobenzimidazol-5-yl)carbonyl]-2,3-dihydrobenzimidazol-2-one] |
| 0.29 | O=C(C1CCc2nc[nH]c2C1)N1CCc2ccccc21.O=C(O)/C=C/C(=O)O (centres unmarked) [Example 2, 5-[(2,3-Dihydroindol-1-yl)carbonyl]-4,5,6,7-tetrahydrobenzimidazole fumarate] |
